According to ChEMBL document CHEMBL4342447, “l-Phenylalanine Alters the Privileged Secondary Metabolite Production in the Marine-Derived Fungus Trichoderma erinaceum F1-1” (J Nat Prod, 2020):

Experiments:
[1] = test system: MDA-MB-435; experiment: Cytotoxicity against human MDA-MB-435 cells assessed as reduction in cell viability by MTT assay; assay type: functional, cell-based
[2] = test system: A549; experiment: Cytotoxicity against human A549 cells assessed as reduction in cell viability by MTT assay; assay type: functional, cell-based

Compound | IC50 [1] | IC50 [2]
CCC(=O)Oc1cc(C)cc(Oc2cc(C)cc(OC)c2)c1 | 31.9 µM | –
COc1cc(C)cc(Oc2cc(C)cc(OC)c2)c1 | 12.5 µM | –
CC(C)(c1ccc(O)cc1)c1ccc(OCC(O)COc2ccc(C(C)(C)c3ccc(O)cc3)cc2)cc1 | 22.3 µM | 18.4 µM
COc1cc(C)cc(Oc2cc(C)cc(O)c2)c1 [CORDYOL E] | 41.1 µM | –
